The experiment has as its target human PAD4 (hPAD4) (Homo sapiens, UniProt Q9UM07). The experiment in a line: RFMS human PAD4 functional assay (rapid-fire mass spectrum). The format is biochemical. To be noted: 5 nM hPAD4 enzyme, 250 μM BAEE, 50 μM Calcium; 30 min preincubation, 90 min reaction at 37° C. The method, then:
Compounds of the present invention were assayed as inhibitors of PAD4 using the assay protocol described below.
RFMS tinman PAD4 Functional Assay:
Compounds were solubilized in 100% DMSO to achieve a 10 mM compound concentration. Compound stock solutions were stored at RT. A series of dilutions were prepared in DMSO and mixed 8 times with 20 μl, mixing volume. Final top concentration of compound in the assay is 50 μM. […] 1-90 min enzyme/substrate reaction, 30 min reaction with phenyl glyoxal at 37° C. • Stop solution: 40 μl 5% TCA in ACN
0.13 μL of compound solution was added to 13 μL of 10 nM PAD4 in assay buffer. After 30 min 13 μl of 500 μM of BAEE was added in 25 mM hepes, pH 7.5, 5 mM NaCl, 1 mM DTT, 0.2 mg/ml BS A, 0.01% CHAPS, 50 μM Calcium, 5 μM TPEN was added and the reaction incubated for 90 min at 37° C. The enzymatic reaction was quenched by addition of 15 μl of 6.1N TCA, 100% Final Concentration is 20%, 35 μl of 8.5 mM phenyl glyoxal (final concentration 4 mM) is then added and the reaction is incubated for 30 min at 37° C.
After 30 minutes the plates are spun down to remove all precipitate. The enzyme reaction was quenched with an equal volume of methanol containing internal standard (modified citrulline). Samples were loaded onto the Rapid Fire RF300 system (Agilent) wherein they were first sipped for 1000 ms and then directly loaded to a C18 separations cartridge using a mixture of acetonitrile containing 0.01% formic acid for 3000 ms desalting. The flow rate of the mobile phase was 1.5 ml/min.
The dwell time for each transition was set at 200 ms, and the ESI voltage was used at 5500 with a source temperature of 400° C. Extracted ion peaks for each transition were integrated using the Rapid Fire Integrator software. Peak area of analyte was normalized with internal standard).

Consider 19 compounds from patent publication US12692254B2, “Benzimidazole inhibitors of PAD enzymes” (BRISTOL-MYERS SQUIBB COMPANY, priority 2018, dated 2026).

The term IC50 denotes the concentration that inhibits the measured activity by half.

Chain of human PAD4 (hPAD4) (Q9UM07 whole entry): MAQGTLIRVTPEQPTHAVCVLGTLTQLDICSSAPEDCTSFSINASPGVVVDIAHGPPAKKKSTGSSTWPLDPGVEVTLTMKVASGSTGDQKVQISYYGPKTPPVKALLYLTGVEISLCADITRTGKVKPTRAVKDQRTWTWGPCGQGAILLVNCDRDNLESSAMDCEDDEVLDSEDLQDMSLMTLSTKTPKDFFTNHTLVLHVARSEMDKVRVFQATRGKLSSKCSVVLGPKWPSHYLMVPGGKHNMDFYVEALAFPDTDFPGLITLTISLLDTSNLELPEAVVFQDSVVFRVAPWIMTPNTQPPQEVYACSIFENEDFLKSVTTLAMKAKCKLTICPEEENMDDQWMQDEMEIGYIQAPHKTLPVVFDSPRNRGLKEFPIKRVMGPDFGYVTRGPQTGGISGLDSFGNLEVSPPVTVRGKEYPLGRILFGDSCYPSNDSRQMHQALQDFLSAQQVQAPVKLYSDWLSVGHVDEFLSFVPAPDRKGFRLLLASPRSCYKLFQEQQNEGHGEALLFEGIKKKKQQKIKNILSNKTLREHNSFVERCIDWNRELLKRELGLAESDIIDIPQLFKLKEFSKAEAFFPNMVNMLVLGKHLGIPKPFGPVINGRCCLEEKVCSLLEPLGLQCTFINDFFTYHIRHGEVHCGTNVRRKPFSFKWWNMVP

Consider `COc1cc(C(=O)N2C[C@H](N)C[C@@H](F)C2)cc2nc(-c3cc4ccccc4n3CC3CC3)n(Cc3cc(C)nn3C)c12` [Example 276, (3R,5R)-1-{2-[1-(cyclopropylmethyl)-1H-indol-2-yl]-1-[(1,3-dimethyl-1H-pyrazol-5-yl)methyl]-7-methoxy-1H-1,3-benzodiazole-5-carbonyl}-5-fluoropiperidin-3-amine], for which the IC50 is 298 nM.

In the case of `COc1nccc(N2CCC(Cn3c(-c4cc5cccnc5n4CC4CC4)nc4cc(C(=O)N5CC6CCC5[C@@H]6N)cc(OC)c43)CC2)n1` (stereo partly drawn) [Example 222, (1R.,4R,7R)-2-{2-[1-(cyclopropylmethyl)-1H-pyrrolo[2,3-b]pyridin-2-yl]-7-methoxy-1-{[1-(2-methoxypyrimidin-4-yl)piperidin-4-yl]methyl}-1H-1,3-benzodiazole-5-carbonyl}-2-azabicyclo[2.2.1]heptan-7-amine], the IC50 was determined as 166 nM.

For the compound `COc1cc(C(=O)N2C[C@H]3CC[C@@H]2[C@@H]3N)cc2nc(-c3cc4ccccc4n3CC3CC3)n(C[C@H]3CCN(c4cncc(C#N)n4)C3)c12` [Example 196, 6-[(3S)-3-({5-[(1R,4R,7R)-7-amino-2-azabicyclo[2.2.1]heptane-2-carbonyl]-2-[1-(cyclopropylmethyl)-1H-indol-2-yl]-7-methoxy-1H-1,3-benzodiazol-1-yl}methyl)pyrrolidin-1-yl]pyrazine-2-carbonitrile], the concentration for half-maximal inhibition (IC50) was 16 nM.

For the compound `COc1cc(C(=O)N2C[C@H]3CC[C@@H]2[C@@H]3N)cc2nc(-c3cc4cccnc4n3CC3CC3)n(C3CN(c4cncnc4)C3)c12` [Example 76, (1R,4R,7R)-2-{2-[1-(cyclopropylmethyl)-1H-pyrrolo[2,3-b]pyridin-2-yl]-7-methoxy-1-[1-(pyrimidin-5-yl)azetidin-3-yl]-1H-1,3-benzodiazole-5-carbonyl}-2-azabicyclo[2.2.1]heptan-7-amine], the IC50 was determined as 292 nM.

On to `COc1cc(C(=O)N2CC3CCC2[C@@H]3N)cc2nc(-c3cccn3CC3CC3)n(CC3CN(c4cncc(C#N)n4)C3)c12` (stereo partly drawn) [Example 313, 6-[3-({5-[(1R,4R,7R)-7-amino-2 azabicyclo[2.2.1]heptane-2-carbonyl]-2-[1-(cyclopropylmethyl)-1H-pyrro1-2-yl]-7-methoxy-1H-1,3-benzodiazol-1-yl}methyl)azetidin-1-yl]pyrazine-2-carbonitrile], for which the 50% inhibitory concentration (IC50) came to 403 nM.

Take `COc1cc(C(=O)N2CC3(CCCNC3)C2)cc2nc(-c3cc4ccccc4n3CC3CC3)n(Cc3cnn(C)c3)c12` [Example 288, 2-{2-[1-(cyclopropylmethyl)-1H-indol-2-yl]-7-methoxy-1-[(1-methyl-1H-pyrazol-4-yl)methyl]-1H-1,3-benzodiazole-5-carbonyl}-2,6-diazaspiro[3.5]nonane]: the IC50 was 1280 nM.

On to `COc1cc(C(=O)N2CC3CCC2[C@@H]3N)cc2nc(-c3cccn3C)n(CC3CN(c4ccnc(C#N)n4)C3)c12` (stereo partly drawn) [Example 318, 4-[3-({5-[(1R,4R,7R)-7-amino-2-azabicyclo[2.2.1]heptane-2-carbonyl]-7-methoxy-2-(1-methyl-1H-pyrrol-2-yl)-1H-1,3-benzodiazo1-1-yl)methyl)azetidin-1-yl]pyrimidine-2-carbonitrile], for which the 50% inhibitory concentration (IC50) came to 1300 nM.

Turning to `COc1cc(C(=O)N2CC3CCC2[C@@H]3N)cc2nc(-c3cc4cccnc4n3CC3CC3)n(CC3CN(C(=O)c4ccc(C#N)c(F)c4)C3)c12` (stereo partly drawn) [Example 459, 4-[3-({5-[(7R)-7-amino-2-azabicyclo[2.2.1]heptane-2-carbonyl]-2-[1-(cyclopropylmethyl)-1H-pyrrolo[2,3-b]pyridin-2-yl]-7-methoxy-1H-1,3-benzodiazol-1-yl}methyl)azetidine-1-carbonyl]-2-fluorobenzonitrile], the 50% inhibitory concentration (IC50) came out at 66 nM.

For `COc1cc(C(=O)N2CC3CCC2C3N)cc2nc(-c3cc4cccnc4n3CC3CC3)n(CC3CCN(C(=O)c4ccc(C#N)cc4)C3)c12` [Example 201, 4-[(3S)-3-({5-[(1R,4R,7R)-7-amino-2-azabicyc1o[2.2.1]heptane-2-carbonyl]-2-[1-(cyclopropylmethyl)-1H-pyrrolo[2,3-b]pyridin-2-yl]-7-methoxy-1H-1,3-benzodiazol-1-yl}methyl)pyrrolidine-1-carbonyl]benzonitrile], the IC50 is 18 nM.

Turning to `COc1cc(C(=O)N2C[C@H]3CC[C@@H]2[C@@H]3N)cc2nc(-c3cc4cccnc4n3CC3CC3)n(CC3CN(C(=O)c4ccnc(F)c4)C3)c12` [Example 122, (1R,4R,7R)-2-{2-[1-(cyclopropylmethyl)-1H-pyrrolo[2,3-b]pyridin-2-yl]-1-{[1-(2-fluoropyridine-4-carbonyl)azetidin-3-yl]methyl}-7-methoxy-1H-1,3-benzodiazole-5-carbonyl}-2-azabicyclo[2.2.1]heptan-7-amine], the IC50 was determined as 98 nM.

With `COc1cc(C(=O)N2CC3CCC2[C@@H]3N)cc2nc(-c3cc4cccnc4n3CC3CC3)n(Cc3cn[nH]c3)c12` (stereo partly drawn) [Example 488, (7R)-2-{2-[1-(cyclopropylmethyl)-1H-pyrrolo[2,3-b]pyridin-2-yl]-7-methoxy-1-[(1H-pyrazol-4-yl)methyl]-1H-1,3-benzodiazole-5-carbonyl}-2-azabicyclo[2.2.1]heptan-7-amine], the IC50 turned out to be 55 nM.

As for `COc1cc(C(=O)N2C[C@H]3CC[C@@H]2[C@@H]3N)cc2nc(-c3cc4ccccc4n3C)n(CC3CN(c4ccnc(C#N)n4)C3)c12` [Example 10, 4-[3-({5-[(1R,4R,7R)-7-amino-2-azabicyclo[2.2.1]heptane-2-carbonyl]-7-methoxy-2-(1-methyl-1H-indol-2-yl)-1H-1,3-benzodiazol-1-yl}methyl)azetidin-1-yl]pyrimidine-2-carbonitrile], the IC50 worked out at 32 nM.

For `COc1cc(C(=O)N2C[C@H]3CC[C@@H]2[C@@H]3N)cc2nc(-c3cc4cccnc4n3CC3CC3)n(CC3CN(c4ccncc4)C3)c12` [Example 57, (1R,4R,7R)-2-{2-[1-(cyclopropylmethyl)-1H-pyrrolo[2,3-b]pyridin-2-yl]-7-methoxy-1-{[1-(pyridin-4-yl)azetidin-3-yl]methyl}-1H-1,3-benzodiazole-5-carbonyl}-2-azabicyclo[2.2.1]heptan-7-amine], the IC50 amounted to 168 nM.

For the compound `COc1cc(C(=O)N2C[C@H]3CC[C@@H]2[C@@H]3N)cc2nc(-c3cc4ccc(Cl)cc4n3CC3CC3)n(CC3CN(c4cncc(C)c4)C3)c12` [Example 23, (1R,4R,7R)-2-{2-[6-chloro-1-(cyclopropylmethyl)-1H-indol-2-yl]-7-methoxy-1-{[1-(5-methylpyridin-3-yl)azetidin-3-yl]methyl}-1H-1,3-benzodiazole-5-carbonyl}-2-azabicyclo[2.2.1]heptan-7-amine], the IC50 stood at 62 nM.

Consider `COc1cc(C(=O)N2C[C@H]3CC[C@@H]2[C@@H]3N)cc2nc(-c3cc4cccnc4n3CC3CC3)n(C3CN(c4cncc(C#N)n4)C3)c12` [Example 69, 6-(3-{5-[(1R,4R,7R)-7-amino-2-azabicyclo[2.2.1]heptane-2-carbonyl]-2-[1-(cyclopropylmethyl)-1H-pyrrolo[2,3-b]pyridin-2-yl]-7-methoxy-1H-1,3-benzodiazol-1-yl}azetidin-1-yl)pyrazine-2-carbonitrile], for which the IC50 came out at 58 nM.

Turning to `COc1nccnc1N1CC(Cn2c(-c3cc4cccnc4n3CC3CC3)nc3cc(C(=O)N4C[C@H]5CC[C@@H]4[C@@H]5N)cc(OC)c32)C1` [Example 43, (1R,4R,7R)-2-{2-[1-(cyclopropylmethyl)-1H-pyrrolo[2,3-b]pyridin-2-yl]-7-methoxy-1-{[1-(3-methoxypyrazin-2-yl)azetidin-3-yl]methyl}-1H-1,3-benzodiazole-5-carbonyl}-2-azabicyclo[2.2.1]heptan-7-amine], the concentration for half-maximal inhibition (IC50) turned out to be 103 nM.

Consider `CCn1cc(Cn2c(-c3cc4ccccc4n3CC3CC3)nc3cc(C(=O)N4C[C@H](N)C[C@@H](F)C4)cc(OC)c32)cn1` [Example 487, (3R,5R)-1-{2-[1-(cyclopropylmethyl)-1H-indol-2-yl]-1-[(1-ethyl-1H-pyrazol-4-yl)methyl]-7-methoxy-1H-1,3-benzodiazole-5-carbonyl}-5-fluoropiperidin-3-amine], for which the concentration for half-maximal inhibition (IC50) was 46 nM.

Turning to `COc1cc(C(=O)N2C[C@H]3CC[C@@H]2[C@@H]3N)cc2nc(-c3cc4cccnc4n3CC3CC3)n(CC3CN(C(=O)C4CCCC4)C3)c12` [Example 113, (1R,4R,7R)-2-{1-[(1-cyclopentanecarbonylazetidin-3-yl)methyl]-2-[1-(cyclopropylmethyl)-1H-pyrrolo[2,3-b]pyridin-2-yl]-7-methoxy-1H-1,3-benzodiazole-5-carbonyl]-2-azabicyclo[2.2.1]heptan-7-amine], the IC50 was 52 nM.

Regarding `COc1cc(C(=O)N2C[C@H]3CC[C@@H]2[C@@H]3N)cc2nc(-c3cc4ccccc4n3C)n(CC3CN(c4cncnc4C#N)C3)c12` [Example 44, 5-[3-({5-[(1R,4R,7R)-7-amino-2-azabicyclo[2.2.1]heptane-2-carbonyl]-7-methoxy-2-(1-methyl-1H-indol-2-yl)-1H-1,3-benzodiazol-1-yl}methyl)azetidin-1-yl]pyrimidine-4-carbonitrile], the 50% inhibitory concentration (IC50) amounted to 112 nM.
